Experiments:
Format in all cases: functional
MDA-MB-231 = test: Antiproliferative activity against human MDA-MB-231 cells after 48 hrs by SRB cell proliferation assay; details: MDA-MB-231, 48 h
A549 = test: Antiproliferative activity against human A549 cells after 48 hrs by SRB cell proliferation assay; details: A549, 48 h
HeLa = test: Antiproliferative activity against human HeLa cells after 48 hrs by SRB cell proliferation assay

Row | SMILES | GI50 (MDA-MB-231) [nM] | GI50 (A549) [nM] | GI50 (HeLa) [nM]
1 | CCOc1ccc(-c2nc3ccccc3c(=O)n2C/C=C/c2ccc(C(=O)CN3C(=O)COc4ccccc43)cc2)cc1 | 1130 | 1000 | 1050
2 | O=C(CN1C(=O)COc2ccccc21)c1ccc(/C=C/Cn2c(-c3ccc(F)cc3)nc3ccccc3c2=O)cc1 | 1520 | 810 | 1020
3 | O=C(CN1C(=O)COc2ccccc21)c1ccc(/C=C/Cn2c(-c3ccc([N+](=O)[O-])cc3)nc3ccccc3c2=O)cc1 | 8800 | 1000 | 660
4 | COc1ccc(-c2nc3ccccc3c(=O)n2C/C=C/c2ccc(C(=O)CN3C(=O)COc4ccccc43)cc2)cc1 | 3600 | 1500 | 1030
5 | O=C(CN1C(=O)COc2ccccc21)c1ccc(/C=C/Cn2c(-c3ccc(C(F)(F)F)cc3)nc3ccccc3c2=O)cc1 | 580 | 930 | 1320
6 | O=C(CN1C(=O)COc2ccccc21)c1ccc(/C=C/Cn2c(-c3ccc(Cl)cc3)nc3ccccc3c2=O)cc1 | 2000 | 760 | 1100
7 | COc1ccc(-c2nc3ccccc3c(=O)n2C/C=C/c2ccc(C(=O)CN3C(=O)COc4ccccc43)cc2)c(OC)c1 | 6030 | 1360 | 590
8 | COc1ccc(-c2nc3ccccc3c(=O)n2C/C=C/c2ccc(C(=O)CN3C(=O)COc4ccccc43)cc2)c(F)c1 | 2400 | 670 | 370
9 | COc1cccc(-c2nc3ccccc3c(=O)n2C/C=C/c2ccc(C(=O)CN3C(=O)COc4ccccc43)cc2)c1 | 13000 | 610 | 550
10 | Cc1ccc(-c2nc3ccccc3c(=O)n2C/C=C/c2ccc(C(=O)CN3C(=O)COc4ccccc43)cc2)cc1 | 3400 | 900 | 1400
11 | O=C(CN1C(=O)COc2ccccc21)c1ccc(/C=C/Cn2c(-c3ccc(Cl)cc3Cl)nc3ccccc3c2=O)cc1 | 2730 | 910 | 620
12 | COc1ccc(-c2nc3ccccc3c(=O)n2C/C=C/c2ccc(C(=O)CN3C(=O)COc4ccccc43)cc2)c(OC)c1OC | 6760 | 320 | 1510
13 | Cc1nc2ccccc2c(=O)n1C/C=C/c1ccc(C(=O)CN2C(=O)COc3ccccc32)cc1 | 6140 | 910 | 880
14 | O=C(CN1C(=O)COc2ccccc21)c1ccc(/C=C/Cn2c(-c3ccccc3)nc3ccccc3c2=O)cc1 | 13400 | 1000 | 1370
15 | COc1ccc(/C=C\c2cc(OC)c(OC)c(OC)c2)cc1O [COMBRETASTATIN A4] | 46 | 56 | 84
16 | COC(=O)Nc1nc2cc(C(=O)c3cccs3)ccc2[nH]1 [NOCODAZOLE] | < 10 | < 10 | < 10
